Patent US20050020495A1, “Antiretroviral compositions comprising thymosin alpha peptides and protease inhibitors” (priority 2001, published 2005)
Ends that are not written are not given here.

Key:
HIV [1] = settings: cited from earlier work
HIV [2] = test: Randomised trial of Tα1 injections versus no injections in clinically stable HIV patients; TREC response in PBMCs, lymphocyte subsets, tolerability; assay type: in vivo, human
Method: Efficacy of HIV treatment is shown by evaluating TREC response in peripheral blood mononuclear cells (PBMCs) to treatment with Tα1 plus an HIV inhibitory agent.
Twenty clinically stable patients with viral loads <400 copies/ml and CD4 counts less than 200 cells/μl were randomised to receive 3.2 mg […] subcutaneous injections twice weekly or no injections for 12 weeks. CD4 and CD8 counts, CD45 RO+ and RA+ subsets and T cell re-excision circles (TREC) in peripheral blood mononuclear cells (PBMCs) were measured every four weeks, along with regular clinical assessments and routine laboratory tests.

## Thymosin α1 (SDAAVDTSSEITTKDLKEKKEVVEEAEN; not fully specified (N-terminus); ends and bridges not checked; UniProt P06454 2-29, looked up) [Tα1, 28-amino acid thymic peptide hormone with immunomodulatory properties, homologous to a natural product isolated from thymosin fraction 5 of calf thymuses]
HIV [1]; given in combination with either IL-2 or interferon-α
  CD4 counts: induced increases in CD4 counts
HIV [1]; patients taking zidovudine monotherapy, contrasted with IL-2 or INF-α
  Systemic adverse reactions: virtual absence of any significant systemic adverse reactions
HIV [2]; 3.2 mg subcutaneous twice weekly for 12 weeks
  Signs of toxicity during the trial: no patients taking the medication developed signs of toxicity
HIV [2]; 3.2 mg subcutaneous twice weekly for 12 weeks, 13 patients on Tα1
  Tolerability: well tolerated
HIV [2]; over the 12 week study period
  Changes in CD4, CD8 and CD45 lymphocyte subsets versus controls: did not differ between the groups
HIV [2]; week 12
  Mean TREC levels relative to control group: 20 times
  Patients with detectable TREC levels versus control patients: far more of the Tα1 group had detectable TREC levels than control patients
  TREC levels in PBMCs versus controls: significant increase
